Legend:
[1] = system: wheat powdery mildew (Erysiphe graminis); assay: Greenhouse pot test, wheat powdery mildew; assay type: in vivo
Excerpt: (§1) Test method: each of the test compounds in Table 1 was dispensed to 5 wt % emulsifiable concentrate (hereinafter referred to as 5% EC). The greenhouse pot test was used in each experiment, and the effective concentrations of each compound were illustrated in Table 1.
Wheat powdery mildew: two-leaf stage potted wheat seedling with uniform growth was selected and made foliar spray treatment with 5% EC, the blank control sprayed with clean water was additionally arranged, three replicates were carried out. After 24 h, the leaves of the host plants were inoculated by shake-down method with sporangial suspensions of the fungi wheat powdery mildew (Erysiphe graminis), the plants were stored in a greenhouse (25±1° C.). After 7 days, the screening results were investigated according to the disease incidence condition of blank control.
(§2) The investigation method: “Guidelines for the field efficacy trials of pesticides” was adopted as the grading standard, and the control effect in a unit of % was calculated based on the disease index. Disease index=Σ(number of diseased leaves at each grade×relative grade value)×100/(total number of leaves×9); Control effect (%)=(disease index of control−disease index of treated)×100/disease index of control;
(§3) The compounds provided by the present disclosure and some control compounds were tested by the same methods in the Test example 1, except that the effective concentrations of the compounds in this Test example are shown in Table 2.

[2] = system: rice sheath blight fungi (Rhizoctonia solami); assay: Greenhouse pot test, rice sheath blight; assay type: in vivo
Description: as §3
In addition, the test method for rice sheath blight as following steps:
The potted rice seedling with uniform growth was selected, and dried in the shade for 24 h after spray treatment, then inoculated 3 blocks of 0.25 cm^2 rice sheath blight fungi (Rhizoctonia solami) at the base of seedling by clamp inoculation bacterium block method. The test materials inoculated were moved into greenhouse (temperature: lighting 28° C., dark 25° C., relative humidity 95%), after 7 days, investigate 5 leaves of per block treatment, the grading investigation was carried out according to the disease incidence condition of sheaths and leaves of rice, “Guidelines for the field efficacy trials of pesticides” was adopted as the grading standard, the disease index was calculated according to the grading standard, and the control effect in a unit of % was calculated according to disease index.

cucumber powdery mildew = assay: Greenhouse pot test, cucumber powdery mildew; assay type: in vivo; details: greenhouse pot
Description: as §1
Cucumber powdery mildew: cucumber seedling in a true leaf period with uniform growth was selected, and dried in the shade for 24 h after spray treatment. Fresh cucumber powdery mildew spores on the cucumber leaves were collected and washed, and filtered through a double gauze to prepare a spores suspension with concentration of about 100,000/mL, then spray inoculation was applied. The test materials inoculated were moved into a greenhouse (lighting 21-23° C.), after 8 days, the grading investigation was carried out according to the disease incidence condition of blank control, and the control effect in a unit of % was calculated according to disease index.
as §2, §3

wheat powdery mildew = assay: Field trial, wheat powdery mildew; assay type: in vivo, Erysiphe graminis; details: 100 mg/L, sprayed once
Description: II. The Wheat Powdery Mildew Test Method:
(§4) Spray method: Stein and leaf spraying (Applicator: Xinkangda lithium battery electric sprayer).
Test crops: wheat (cultivars: Liaochun 10)
(§5) The test was carried out in Shenyang, the test field was loam with rich organic matters and normal management of fertilizer and water, and no other pesticide was applied during the test.
(§6) The arrangement of the test plot was random block permutation; the area of the test plot: 15 m^2; repeat times: 3 times; spray time and frequency: Sep. 17, 2018, once. Spray dosage: each treatment was repeated 3 times, the total water consumption was 8 L. No other pesticide was applied during the test.
The incidence of disease spots in each plot was investigated by diagonal selecting 4 samples/plot and 20 plants/samples, and the first leaf below the flag leaf of each plant was investigated.
(§7) The grading standard of crop disease was as follows:
(§8) Grade 0: no leaf-spot area;
(§9) Grade 1: the ratio of leaf-spot area to leaf area is less than 5%;
(§10) Grade 3: the ratio of leaf-spot area to leaf area is between 6-25%;
(§11) Grade 5: the ratio of leaf-spot area to leaf area is between 26-50%;
(§12) Grade 7: the ratio of leaf-spot area to leaf area is between 51-75%;
(§13) Grade 9: the ratio of leaf-spot area to leaf area is between 76-100%;
(§14) According to the relevant content of the “Guidelines for the field efficacy trials of pesticides of the People's Republic of China (PRC)”, the disease index was calculated according to the grading standard, and the control effect in a unit of % was calculated based on the disease index, and the test data of significance analysis was performed by using DPS evaluation system (DMRT).

soybean rust = assay: Field trial, soybean rust; assay type: in vivo, Phakopsora pacchyrhizi Sydow; details: sprayed 2 times
Description: III. The Soybean Rust Test Method:
as §4
Test crops: soybean (cultivars: Glycine max(L) Merr)
as §5
as §6, with “25” for “15”, “2 times on Aug. 11, 2018 and Aug. 21, 2018 respectively.” for “Sep. 17, 2018, once.”, “test. […] 15-20 days after the second spray treatment, the control effect was investigated.” for “test.”
The incidence of disease spots in each plot was investigated by diagonal selecting 5 samples/plot and 20 plants/samples, 10 leaves/plant was surveyed.
as §7, §8, §9, §10, §11, §12, §13, §14

[3] = system: corn rust (Puccinia sorghi); assay: Greenhouse pot test, corn rust; assay type: in vivo
Description: as §1
Corn rust: two-three leaf stage potted corn seedling with uniform growth was selected and made foliar spray treatment with 5% EC, the blank control sprayed with clean water was additionally arranged, three replicates were carried out. After 24 h, the leaves of the host plants were inoculated with sporangial suspensions of the fungi corn rust (Puccinia sorghi), the plants were stored in humidity chamber (temperature: lighting 25° C., dark 20° C., relative humidity 95-100%) and then transferred to greenhouse (25±1° C.) 24 h after infection. After 7 days, the screening results were investigated according to the disease incidence condition of blank control.
as §2, §3

[4] = system: soybean rust (Phakopsora pacchyrhizi Sydow); assay: Greenhouse pot test, soybean rust; assay type: in vivo
Description: as §1
Soybean rust: two-leaf stage potted soybean seedling with uniform growth was selected and made foliar spray treatment with 5% EC, the blank control sprayed with clean water was additionally arranged, three replicates were carried out. After 24 h, the leaves of the host plants were inoculated with sporangial suspensions of the fungi soybean rust (Phakopsora pacchyrhizi Sydow), the plants were stored in humidity chamber (temperature 20-25° C., relative humidity>95%) and then transferred to greenhouse (25±1° C.) 8-16 h after infection. After 7 days, the screening results were investigated according to the disease incidence condition of blank control.
as §2, §3

## Cn1cc(C(=O)Nc2cccc3c2[C@@H]2CC[C@H]3C2=C(Cl)Cl)c(C(F)F)n1 (racemic) [Benzovindiflupyr]
[1]; 1.5625 mg/L
  Control effect (%) Wheat powdery mildew: 50%
[1]; 3.1250 mg/L
  Control effect (%) Wheat powdery mildew: 70%
[2]; 0.5 mg/L
  Control effect (%) Rice sheath blight: 30%
[2]; 1 mg/L
  Control effect (%) Rice sheath blight: 40%
[2]; 1.5625 mg/L
  Control effect (%) Rice sheath blight: 55%
[2]; 3.1250 mg/L
  Control effect (%) Rice sheath blight: 65%
Cucumber powdery mildew; 1.5625 mg/L
  Control effect (%) Cucumber powdery mildew: 20%
Cucumber powdery mildew; 6.25 mg/L
  Control effect (%) Cucumber powdery mildew: 80%
Cucumber powdery mildew; 25 mg/L
  Control effect (%) Cucumber powdery mildew: 100%
Cucumber powdery mildew; 100 mg/L
  Control effect (%) Cucumber powdery mildew: 100%
Wheat powdery mildew
  Control effect (%) Wheat powdery mildew: 95%
Soybean rust; dosage 50 mg/L
  Control effect (%): 91.46%
Soybean rust; dosage 75 mg/L
  Control effect (%): 94.51%
Soybean rust; dosage 100 mg/L
  Control effect (%): 97.15%
[3]; 1.5625 mg/L
  Control effect (%) Corn rust: 95%
[3]; 3.1250 mg/L
  Control effect (%) Corn rust: 98%
[4]; 0.5 mg/L
  Control effect (%) Soybean rust: 95%
[4]; 1 mg/L
  Control effect (%) Soybean rust: 98%
[4]; 1.5625 mg/L
  Control effect (%) Soybean rust: 100%
[4]; 3.1250 mg/L
  Control effect (%) Soybean rust: 100%

## Fc1ccc([C@]2(Cn3cncn3)O[C@H]2c2ccccc2Cl)cc1 (racemic) [Epoxiconazole]
[2]; 0.625 mg/L
  Control effect (%) Rice sheath blight: 30%
[2]; 2.5 mg/L
  Control effect (%) Rice sheath blight: 70%
[2]; 10 mg/L
  Control effect (%) Rice sheath blight: 100%

## CO/C=C(/C(=O)OC)c1ccccc1Oc1cc(Oc2ccccc2C#N)ncn1 [Azoxystrobin]
Cucumber powdery mildew; 100 mg/L
  Control effect (%) Cucumber powdery mildew: 0%
Cucumber powdery mildew; 400 mg/L
  Control effect (%) Cucumber powdery mildew: 30%
Soybean rust; dosage 50 mg/L
  Control effect (%): 84.62%

Source: patent US11548855B2, “Pyrazole amide compound and application thereof, and fungicide” (Shandong United Pesticide Industry Co. Ltd., priority 2017, dated 2023)
